Experimental data: PubChem BioAssay (NCI)
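Cultured in 96-well plates, cells were exposed to test compound for 48 hours across five concentrations. At the GI50, growth is halved. TGI marks complete inhibition of growth.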

What was measured:
Assay in all cases: growth of human tumour cells (NCI), 48 h
786-0 renal = system: 786-0 renal
A498 renal = system: A498 renal
A549 NSCLC = system: A549 NSCLC
ACHN renal = system: ACHN renal
BT-549 breast = system: BT-549 breast
CAKI-1 renal = system: CAKI-1 renal
CCRF-CEM leukemia = system: CCRF-CEM leukemia
COLO 205 colon = system: COLO 205 colon
DU-145 prostate = system: DU-145 prostate
EKVX NSCLC = system: EKVX NSCLC
HCC-2998 colon = system: HCC-2998 colon
HCT-116 colon = system: HCT-116 colon
HCT-15 colon = system: HCT-15 colon
HL-60(TB) leukemia = system: HL-60(TB) leukemia
HOP-62 NSCLC = system: HOP-62 NSCLC
HOP-92 NSCLC = system: HOP-92 NSCLC
HS 578T breast = system: HS 578T breast
HT29 colon = system: HT29 colon
IGROV1 ovarian = system: IGROV1 ovarian
K-562 leukemia = system: K-562 leukemia
KM12 colon = system: KM12 colon
LOX IMVI melanoma = system: LOX IMVI melanoma
M14 melanoma = system: M14 melanoma
MALME-3M melanoma = system: MALME-3M melanoma
MCF7 breast = system: MCF7 breast
MDA-MB-231 breast = system: MDA-MB-231 breast
MDA-MB-435 = system: MDA-MB-435
MOLT-4 leukemia = system: MOLT-4 leukemia
NCI-H226 lung = system: NCI-H226 lung
NCI-H23 lung = system: NCI-H23 lung
NCI-H460 lung = system: NCI-H460 lung
NCI/ADR-RES ovarian = system: NCI/ADR-RES ovarian
OVCAR-3 ovarian = system: OVCAR-3 ovarian
OVCAR-4 ovarian = system: OVCAR-4 ovarian
OVCAR-5 ovarian = system: OVCAR-5 ovarian
PC-3 prostate = system: PC-3 prostate
RPMI-8226 leukemia = system: RPMI-8226 leukemia
SF-268 CNS = system: SF-268 CNS
SF-295 CNS = system: SF-295 CNS
SF-539 CNS = system: SF-539 CNS
SK-MEL-28 melanoma = system: SK-MEL-28 melanoma
SK-MEL-5 melanoma = system: SK-MEL-5 melanoma
SK-OV-3 ovarian = system: SK-OV-3 ovarian
SN12C renal = system: SN12C renal
SNB-19 CNS = system: SNB-19 CNS
SNB-75 CNS = system: SNB-75 CNS
SW-620 colon = system: SW-620 colon
T-47D breast = system: T-47D breast
TK-10 renal = system: TK-10 renal
U251 CNS = system: U251 CNS
UACC-62 melanoma = system: UACC-62 melanoma
UO-31 renal = system: UO-31 renal

CCCCNc1ccc(Nc2ccccc2)cc1
GI50 (786-0 renal): 10.4 µM | TGI (786-0 renal): 74.6 µM | GI50 (A498 renal): 11.4 µM | TGI (A498 renal): > 100 µM | GI50 (A549 NSCLC): 4.38 µM | TGI (A549 NSCLC): 52.9 µM | GI50 (ACHN renal): 16.7 µM | TGI (ACHN renal): > 100 µM | GI50 (BT-549 breast): 2.84 µM | TGI (BT-549 breast): 21.6 µM | GI50 (CAKI-1 renal): 18.6 µM | TGI (CAKI-1 renal): 88.5 µM | GI50 (CCRF-CEM leukemia): 2.93 µM | TGI (CCRF-CEM leukemia): > 100 µM | GI50 (COLO 205 colon): 2.77 µM | TGI (COLO 205 colon): 11.7 µM | GI50 (DU-145 prostate): 7.87 µM | TGI (DU-145 prostate): > 100 µM | GI50 (EKVX NSCLC): 3.53 µM | TGI (EKVX NSCLC): > 100 µM | GI50 (HCC-2998 colon): 5.73 µM | TGI (HCC-2998 colon): > 100 µM | GI50 (HCT-116 colon): 2.97 µM | TGI (HCT-116 colon): 22.7 µM | GI50 (HCT-15 colon): 21.3 µM | TGI (HCT-15 colon): > 100 µM | GI50 (HL-60(TB) leukemia): 2.05 µM | TGI (HL-60(TB) leukemia): 5.35 µM | GI50 (HOP-62 NSCLC): 14.4 µM | TGI (HOP-62 NSCLC): 71.4 µM | GI50 (HOP-92 NSCLC): 3.42 µM | TGI (HOP-92 NSCLC): 32.5 µM | GI50 (HS 578T breast): 5.11 µM | TGI (HS 578T breast): 73.7 µM | GI50 (HT29 colon): 4.37 µM | TGI (HT29 colon): 25.1 µM | GI50 (IGROV1 ovarian): 5.61 µM | TGI (IGROV1 ovarian): 27.2 µM | GI50 (K-562 leukemia): 2.45 µM | TGI (K-562 leukemia): 12 µM | GI50 (KM12 colon): 4.02 µM | TGI (KM12 colon): 32.6 µM | GI50 (LOX IMVI melanoma): 5.85 µM | TGI (LOX IMVI melanoma): 21.5 µM | GI50 (M14 melanoma): 6.3 µM | TGI (M14 melanoma): 31.3 µM | GI50 (MALME-3M melanoma): 3.8 µM | TGI (MALME-3M melanoma): 28.8 µM | GI50 (MCF7 breast): 3.74 µM | TGI (MCF7 breast): 28 µM | GI50 (MDA-MB-231 breast): 16.9 µM | TGI (MDA-MB-231 breast): 95 µM | GI50 (MDA-MB-435): 3.29 µM | TGI (MDA-MB-435): 24.3 µM | GI50 (MOLT-4 leukemia): 3.23 µM | TGI (MOLT-4 leukemia): 25.9 µM | GI50 (NCI-H226 lung): 12.5 µM | TGI (NCI-H226 lung): > 100 µM | GI50 (NCI-H23 lung): 3.15 µM | TGI (NCI-H23 lung): 43 µM | GI50 (NCI-H460 lung): 4.61 µM | TGI (NCI-H460 lung): 43 µM | GI50 (NCI/ADR-RES ovarian): 21.5 µM | TGI (NCI/ADR-RES ovarian): > 100 µM | GI50 (OVCAR-3 ovarian): 3.79 µM | TGI (OVCAR-3 ovarian): > 100 µM | GI50 (OVCAR-4 ovarian): 4.35 µM | TGI (OVCAR-4 ovarian): > 100 µM | GI50 (OVCAR-5 ovarian): 29 µM | TGI (OVCAR-5 ovarian): > 100 µM | GI50 (PC-3 prostate): 3.15 µM | TGI (PC-3 prostate): 38.2 µM | GI50 (RPMI-8226 leukemia): 1.72 µM | TGI (RPMI-8226 leukemia): 4.86 µM | GI50 (SF-268 CNS): 13.3 µM | TGI (SF-268 CNS): > 100 µM | GI50 (SF-295 CNS): 4.63 µM | TGI (SF-295 CNS): 64.4 µM | GI50 (SF-539 CNS): 11.8 µM | TGI (SF-539 CNS): 57.3 µM | GI50 (SK-MEL-28 melanoma): 10.4 µM | TGI (SK-MEL-28 melanoma): 60.2 µM | GI50 (SK-MEL-5 melanoma): 2.78 µM | TGI (SK-MEL-5 melanoma): 10.1 µM | GI50 (SK-OV-3 ovarian): 12.6 µM | TGI (SK-OV-3 ovarian): 70.3 µM | GI50 (SN12C renal): 6.28 µM | TGI (SN12C renal): > 100 µM | GI50 (SNB-19 CNS): 5.19 µM | TGI (SNB-19 CNS): > 100 µM | GI50 (SNB-75 CNS): 8.46 µM | TGI (SNB-75 CNS): 61.9 µM | GI50 (SW-620 colon): 5.06 µM | TGI (SW-620 colon): > 100 µM | GI50 (T-47D breast): 1.65 µM | TGI (T-47D breast): 47 µM | GI50 (TK-10 renal): 4.27 µM | TGI (TK-10 renal): 56.3 µM | GI50 (U251 CNS): 3.89 µM | TGI (U251 CNS): > 100 µM | GI50 (UACC-62 melanoma): 8.2 µM | TGI (UACC-62 melanoma): > 100 µM | GI50 (UO-31 renal): 14.4 µM | TGI (UO-31 renal): 43.1 µM
